# Assay results taken from PMC6481723, “Fibroblast migration correlates with matrix softness. A study in knob-hole engineered fibrin” (APL Bioengineering, 2018).
# Read-outs that look alike come from different tables or passages of the source. Ends that are not written are not given here.
# Experiments:
# bovine fibrinogen = target: T1, bovine fibrinogen (Bos taurus, UniProt P02672+P02676+P12799); experiment: Isothermal titration calorimetry (ITC) binding to fibrinogen; settings: ITC in HBS; peptides 5.7-5.9 mM titrated into 0.175 mM fibrinogen; PEG-pep1 1.7 mM or PEG-pep2 5.2 mM into 0.012 mM fibrinogen; n = 3 independent samples
# T1 sequence (P12799 25-444): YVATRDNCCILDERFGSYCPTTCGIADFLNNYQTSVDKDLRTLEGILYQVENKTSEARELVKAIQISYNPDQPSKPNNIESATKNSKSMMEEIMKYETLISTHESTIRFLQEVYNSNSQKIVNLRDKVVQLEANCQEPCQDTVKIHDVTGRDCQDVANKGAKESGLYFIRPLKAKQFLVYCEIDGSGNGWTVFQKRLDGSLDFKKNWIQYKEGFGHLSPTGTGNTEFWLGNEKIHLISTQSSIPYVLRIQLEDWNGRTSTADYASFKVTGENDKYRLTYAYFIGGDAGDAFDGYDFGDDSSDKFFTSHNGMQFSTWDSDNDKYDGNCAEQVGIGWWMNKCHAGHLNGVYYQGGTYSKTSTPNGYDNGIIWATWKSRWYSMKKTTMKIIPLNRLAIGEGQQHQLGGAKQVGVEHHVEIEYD
# T1 sequence (P02676 1-468): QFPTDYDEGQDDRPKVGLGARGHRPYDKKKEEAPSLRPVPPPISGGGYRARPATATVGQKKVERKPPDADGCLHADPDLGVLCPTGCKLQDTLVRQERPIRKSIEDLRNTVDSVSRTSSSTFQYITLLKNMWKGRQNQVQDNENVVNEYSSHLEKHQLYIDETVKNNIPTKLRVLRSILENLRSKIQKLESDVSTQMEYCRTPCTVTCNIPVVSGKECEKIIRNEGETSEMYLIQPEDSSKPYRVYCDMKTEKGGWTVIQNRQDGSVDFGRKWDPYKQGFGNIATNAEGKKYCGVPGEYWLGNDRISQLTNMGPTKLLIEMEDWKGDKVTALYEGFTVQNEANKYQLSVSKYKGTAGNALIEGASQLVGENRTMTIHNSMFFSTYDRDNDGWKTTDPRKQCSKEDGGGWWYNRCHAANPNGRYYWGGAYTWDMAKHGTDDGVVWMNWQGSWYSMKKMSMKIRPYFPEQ
# T1 sequence (P02672 20-615 partner): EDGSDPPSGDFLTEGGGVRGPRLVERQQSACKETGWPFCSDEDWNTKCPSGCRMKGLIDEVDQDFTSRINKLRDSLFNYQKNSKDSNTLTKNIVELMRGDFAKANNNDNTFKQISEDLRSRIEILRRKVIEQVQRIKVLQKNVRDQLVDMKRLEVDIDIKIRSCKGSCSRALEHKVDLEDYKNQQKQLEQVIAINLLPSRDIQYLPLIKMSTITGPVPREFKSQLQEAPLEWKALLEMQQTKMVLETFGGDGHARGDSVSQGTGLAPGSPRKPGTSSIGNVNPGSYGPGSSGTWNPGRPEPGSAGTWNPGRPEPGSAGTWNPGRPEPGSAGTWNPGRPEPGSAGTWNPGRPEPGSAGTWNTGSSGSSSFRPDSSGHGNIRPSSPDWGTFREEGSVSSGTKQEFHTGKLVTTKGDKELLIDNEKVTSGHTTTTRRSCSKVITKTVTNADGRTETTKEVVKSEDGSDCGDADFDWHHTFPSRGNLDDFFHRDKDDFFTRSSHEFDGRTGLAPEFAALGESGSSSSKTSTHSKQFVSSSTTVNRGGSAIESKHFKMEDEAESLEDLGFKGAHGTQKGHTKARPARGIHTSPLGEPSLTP
# Description: (§1) Two techniques were used to confirm that PEG-peptides retained the ability to bind to fibrinogen (Fig. 1 and Table I, right): Fluorescence Anisotropy (FA) and Isothermal Titration Calorimetry (ITC). In FA measurements [Fig. 1(a)], the dissociation constant (Kd) was determined via saturation experiments for the non-conjugated peptides, and via competition experiments for the PEG-peptides. In the first case, saturation was achieved by adding increasing amounts of fibrinogen to a given amount of fluorescein-labelled peptides. In competition experiments, fibrinogen was pre-complexed with fluorescein-labelled peptides; these low molecular weight fluorophores were displaced upon addition of non-labelled conjugates, with a corresponding decrease in the polarization of the emitted light (smaller tumbling time).
# The sample cell for this study can contain up to 270 μl of liquid. Fibrinogen/peptide samples were prepared adding 2 μl aliquots of peptide solution (5.91, 5.92, and 5.73 mM for Pep1, Pep2, and Pep3, respectively) under continuous stirring to 200 μl of 0.175 mM of bovine fibrinogen solution. Fibrinogen/PEG-peptide complexes were prepared adding 2 μl of 1.7 mM of PEG-pep1 or 5.2 mM of PEG-pep2 to 200 μl of 0.012 mM of bovine fibrinogen solution. Note that fibrinogen was prepared as follow: 60 mg of fibrinogen were dissolved in 1 mL HBS for 2 h at 37 °C and then dialyzed (Float-A-Lyzer G2 MWCO: 0.5–1 kDa, Spectrum, Inc.) against HBS for 24 h.
# fibrinogen [1] = target: T2, fibrinogen (Bos taurus, UniProt P02672+P02676+P12799); experiment: Fluorescence anisotropy (FA) saturation experiments with fluorescein-labelled peptides; type: binding; settings: 5IAF-labelled peptide 25-30 μM, fibrinogen 50 nM-103 μM, HBS, 1 h room temperature; Hill model; n = 3
# T2 sequence (P12799 25-444): T1 sequence (P12799 25-444)
# T2 sequence (P02676 1-468): T1 sequence (P02676 1-468)
# T2 sequence (P02672 20-615 partner): T1 sequence (P02672 20-615 partner)
# Description: as §1
# Equal volumes (100 μl) of a labelled peptide solution (5IAF-pep1, 5IAF-pep2, or 5IAF-pep3) in HEPES (4-(2-hydroxyethyl)-1-piperazineethanesulfonic acid)-buffered saline (HBS) and of a fibrinogen solution were mixed together by gentle pipetting into a 96-well plate to obtain final concentrations of fibrinogen ranging from 50 nM to 103 μM, and a constant peptide concentration, i.e., 26 μM for 5IAF-pep1, 25 μM for 5IAF-pep2, or 30 μM for 5IAF-pep3. […] All mixed reagents were incubated for 1 h at room temperature before recording fluorescence polarization values.
# fibrin clotting = settings: cited from earlier work
# [2] = test system: adult Human Dermal Fibroblasts (HDFa); experiment: Fibrin-in-fibrin HDFa migration assay (radial invasion); type: cell-based; settings: 220 KIU of aprotinin in the media
# Description: This migration assay is based on a fibrin-in-fibrin assay: when a volume of HDFa-laden fibrinogen solution is injected into a gelling fibrinogen-based formulation, cells migrate from the clot into the surrounding matrix; the maximum distance covered in the unit time [Fig. 8(a) top and insert in the bottom graph] is a measure of the cell migration capacity. This model is particularly advantageous to assess the migration of cells separately from other phenomena; for example, if seeded homogeneously and/or moving as a coherent front, cells can rapidly remodel and contract the matrix,[41] and this can profoundly influence the characteristics of their migration too.[42]
# Standard cell culture methods are reported in the supplementary material, Sec. 1.4SI. For the migration assays, adult Human Dermal Fibroblasts (HDFa) were gently suspended in 12.5 mg/ml fibrinogen (in HBS) at a final cell density of 3 × 10^7 cells/ml. […] The cell migration rate was measured by analyzing acquired images with ImageJ (v1.49p, http://rsb.info.nih.gov/ij): the migration area was approximated to a circle and the cell invasion was thus quantified as the variation of the initial diameter, as previously reported by Lutolf et al.[28] An average of nine time points per diameter were measured from day 0 to 8, returning the average migration rate (μm/day). […]
# fibrinogen [3] = target: T2, fibrinogen; experiment: Fluorescence anisotropy (FA) competition experiments (displacement of 5IAF-peptides from fibrinogen); type: binding; settings: 36 μM fibrinogen pre-complexed with 5IAF-pep1 (0.25 μM) or 5IAF-pep2 (0.8 μM), displaced by PEG-peptide, 1 h 37 °C, HBS; n = 3
# Description: as §1
# Fibrinogen/5IAF-pep1 or 5IAF-pep2 complexes were prepared as described in the saturation experiments using 50 μl initial volumes and keeping the fibrinogen concentration fixed. Solutions were pre-incubated for 1 h at room temperature before 50 μl of PEG-peptide 1 or 2 solutions in HBS was added into the wells to obtain a final volume of 150 μl per well. Final concentrations were 36 μM fibrinogen; 0.25 μM 5IAF-pep1 and 0.6 μM to 1.2 mM PEG-pep1; 0.8 μM 5IAF-pep2; and 0.2 μM to 5 mM PEG-pep2. Polarization values were measured after 1 h of incubation at 37 °C. […]
Kd (bovine fibrinogen),Kd (fibrinogen [1]),Substance,other results
44 ± 9 µM,40 ± 1 µM,GPRPGCG [Pep1],–
–,–,GPRP [glycine-proline-arginine-proline],effect on fibrin clotting (fibrin clotting; 1:20 fibrinogen/peptide molar ratio): significantly reduce fibrin clotting; effect on fibrin clotting (fibrin clotting; above 1:100 fibrinogen/peptide molar ratio): completely prevent
–,–,aprotinin,HDFa migration rate in presence vs absence of the inhibitor [2]: virtually identical migration rates
103 ± 5 µM,–,PEG-pep1: 2 kDa PEG vinyl sulfone conjugated to Pep1; rest of material PEG-ME (GPRPGCG; Cys6 thiol joined by thioether (Michael addition) to 2 kDa PEG vinyl sulfone; free N-terminus (A-knob mimic); about 20 mol% of the material is PEG-mercaptoethanol; The GC),Kd (fibrinogen [3]): 135 ± 8 µM
351 ± 10 µM,335 ± 6 µM,GHRPGCG [Pep2],–
